Measured values as given in patent publication US20260070922A1, “PYRAZOLE AND IMIDAZOLE DERIVATIVES AS DUAL OREXIN AND KAPPA-OPIOID RECEPTORS MODULATORS COMPOSITION, METHODS FOR TREATING NEUROLOGICAL AND PSYCHIATRIC DISORDERS” (HAGER BIOSCIENCES, LLC, priority 2022, published 2026).

Experiments:
[1] = target: T1, Orexin type 1 (OX1R) receptor (Homo sapiens, UniProt O43613); assay: In vitro orexin antagonism assay: intracellular calcium measurement (FLIPR), orexin-A 3 nM as agonist; format: cell-based; conditions: for IC50: first value of IC50/Kb cell; for inhibition at 1 µM: read-out: OX1R, % Inh. @ 1 uM; for Kb: second value of IC50/Kb cell
T1 construct: expressed in transfected cells; host or cells: CHO cells (G418 selection)
T1 sequence (O43613 1-425): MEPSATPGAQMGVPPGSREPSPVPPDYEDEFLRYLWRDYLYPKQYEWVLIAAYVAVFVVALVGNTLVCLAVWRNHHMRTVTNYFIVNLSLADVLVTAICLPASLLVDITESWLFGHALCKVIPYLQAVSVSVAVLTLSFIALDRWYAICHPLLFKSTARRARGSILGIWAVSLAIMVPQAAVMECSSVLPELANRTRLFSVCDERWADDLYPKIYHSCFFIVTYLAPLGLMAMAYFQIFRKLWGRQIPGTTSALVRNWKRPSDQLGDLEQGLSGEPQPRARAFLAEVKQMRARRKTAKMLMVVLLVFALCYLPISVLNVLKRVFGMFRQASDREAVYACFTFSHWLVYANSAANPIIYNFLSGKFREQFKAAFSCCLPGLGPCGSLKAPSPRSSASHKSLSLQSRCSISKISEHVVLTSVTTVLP
Summary of the method: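 CHO cells expressing the human orexin receptor were loaded with 3 μM fluo-4 AM plus 5 mM probenecid, then exposed to antagonist for 120 min before 3 nM orexin-A (final) was added on a FLIPR.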

[2] = target: T2, human orexin-2 receptor (OX2R) (Homo sapiens, UniProt O43614); assay: as above; format: cell-based; conditions: for inhibition at 1 µM: read-out: OX2R, % Inh. @ 1 uM; for IC50: first value of IC50/Kb cell; for Kb: second value of IC50/Kb cell
T2 construct: expressed in transfected cells; host or cells: CHO cells (G418 selection)
T2 sequence (O43614 1-444): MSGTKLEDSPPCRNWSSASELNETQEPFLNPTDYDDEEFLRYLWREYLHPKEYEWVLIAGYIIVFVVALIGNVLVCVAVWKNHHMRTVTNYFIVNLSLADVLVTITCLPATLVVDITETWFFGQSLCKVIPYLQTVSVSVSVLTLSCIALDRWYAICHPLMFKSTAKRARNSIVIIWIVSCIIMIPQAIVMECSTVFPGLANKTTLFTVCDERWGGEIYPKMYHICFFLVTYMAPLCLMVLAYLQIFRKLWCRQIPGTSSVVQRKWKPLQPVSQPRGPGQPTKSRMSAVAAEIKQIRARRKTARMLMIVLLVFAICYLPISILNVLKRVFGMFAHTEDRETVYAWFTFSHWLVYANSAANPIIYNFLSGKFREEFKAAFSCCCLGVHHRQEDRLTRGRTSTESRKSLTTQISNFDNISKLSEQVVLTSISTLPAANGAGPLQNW
Summary of the method: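 CHO cells stably expressing human OX1R or OX2R, loaded with fluo-4 AM (3 μM, 5 mM probenecid) for 50 min at 37 °C, then 30 min at RT. Antagonist preincubated 120 min before 3 nM orexin-A; FLIPR fluorescence peak height vs vehicle gives IC50, possibly normalized to on-plate reference; geometric mean of repeats.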

[3] = target: T3, human k-opioid receptor (kOR) (Homo sapiens, UniProt P41145); assay: Human k-opioid (KOP) receptor (agonist radioligand [3H]U-69593) binding assay, transfected RBL cell membranes; conditions: for inhibition at 1 µM: read-out: KOR % Inh. @ 1 uM; for IC50: first value of IC50/Ki cell; for Ki: second value of IC50/Ki cell
T3 construct: expressed in transfected cells; host or cells: RBL cells (membrane homogenates)
Method: Human k-Opioid (KOP) Receptor (Agonist Radioligand) Binding Assay
Purpose: Evaluation of the affinity of compounds for the human k-opioid receptor in transfected RBL cells determined in a radioligand binding assay.
Experimental protocol: Cell membrane homogenates (about 80 μg protein) are incubated for 60 min at 22° C. with 0.5 nM [3H]U-69593 in the absence or presence of the test compound in a buffer containing 50 mM Tris-HCl (pH 7.4), 10 mM MgCl2 and 1 mM EDTA. Nonspecific binding is determined in the presence of 10 μM naloxone. Following incubation, the samples are filtered rapidly under vacuum through glass fiber filters ([…], Packard) presoaked with 0.3% PEI and rinsed several times with ice-cold 50 mM Tris-HCl using a 96-sample cell harvester (Unifilter, Packard). The filters are dried then counted for radioactivity in a scintillation counter (Topcount, Packard) using a scintillation cocktail (Microscint 0, Packard). The results are expressed as a percent inhibition of the control radioligand specific binding. The standard reference compound is U-50488, which is tested in each experiment at several concentrations to obtain a competition curve from which its IC50 is calculated.

T3 sequence (P41145 whole entry): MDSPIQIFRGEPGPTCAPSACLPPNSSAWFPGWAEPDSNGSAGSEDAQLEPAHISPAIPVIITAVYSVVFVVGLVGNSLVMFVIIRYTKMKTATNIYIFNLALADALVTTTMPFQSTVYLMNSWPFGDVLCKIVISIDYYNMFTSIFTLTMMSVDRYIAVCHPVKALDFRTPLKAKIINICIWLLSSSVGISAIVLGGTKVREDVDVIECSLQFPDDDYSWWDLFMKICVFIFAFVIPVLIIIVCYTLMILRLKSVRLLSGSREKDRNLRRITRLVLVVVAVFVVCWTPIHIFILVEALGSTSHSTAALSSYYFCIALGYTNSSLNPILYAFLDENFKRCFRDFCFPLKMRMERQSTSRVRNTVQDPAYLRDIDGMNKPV

SMILES	IC50 [1]	inhibition at 1 µM [1]	Kb [1]	inhibition at 1 µM [2]	inhibition at 1 µM [3]	IC50 [2]	Kb [2]	OX1R, % Inh. @ 1 uM [1]	OX2R, % Inh. @ 1 uM [2]	KOR % Inh. @ 1 uM [3]	IC50 [3]	Ki [3]
O=C(c1nn2ccccc2c1-c1ccccn1)N1CCC[C@H]1Cn1cc(-c2ccc(F)cn2)cn1 [Example 183]	38 nM	94%	9 nM	67%	0%	–	–	–	–	–	–	–
O=C(c1c(-c2ccccc2)nn2ccccc12)N1[C@@H]2CC[C@@H](C2)[C@H]1COc1ccc(C(F)(F)F)cn1 [Example 88]	37 nM	97%	8 nM	66%	22%	360 nM	63 nM	–	–	–	–	–
O=C(c1c(-c2ccccc2)nn2ccccc12)N1CCC[C@H]1Cn1ccc(-c2ccc(C(F)(F)F)cc2)n1 [Example 60]	106 nM	–	22 nM	–	–	–	–	78%	37%	63%	390 nM	210 nM
O=C(c1nn2ccccc2c1-c1ccccn1)N1CCC[C@H]1COc1ccc(C(F)(F)F)cn1 [Example 172]	–	100%	–	40%	4%	–	–	–	–	–	–	–
O=C(c1c(-c2ccc(F)cc2)nc2ccccn12)N1CCC[C@H]1Cn1ccc(-c2ccc(F)cc2)n1 [Example 61]	29 nM	–	6 nM	–	–	76 nM	10 nM	85%	73%	74%	280 nM	150 nM
O=C(c1nn2c(c1-c1ccccc1)COCC2)N1[C@@H]2CC[C@@H](C2)[C@H]1COc1ccc(C(F)(F)F)cn1 [Example 152]	2400 nM	58%	510 nM	16%	3%	–	–	–	–	–	–	–
O=C(c1nn2c(c1-c1ccccn1)COCC2)N1CCC[C@H]1Cn1cc(-c2ccc(F)cn2)cn1 [Example 198]	140 nM	–	29 nM	–	–	–	–	84%	50%	8%	–	–
O=C(c1c(-c2ccccc2F)nn2ccccc12)N1CCC[C@H]1Cn1ccc(-c2ccc(F)cn2)n1 [Example 90]	6 nM	–	1 nM	–	–	15 nM	3 nM	99%	84%	33%	–	–
[2H]C1([2H])CC[C@@]([2H])(Cn2ccc(-c3ccc(F)cc3)n2)N1C(=O)c1c(-c2ncccn2)nn2ccccc12 [Example 178]	4 nM	92%	0.8 nM	95%	53%	15 nM	3 nM	–	–	–	–	–
O=C(c1nn2c(c1-c1ccccc1)OCCC2)N1CCC[C@H]1Cn1ccc(-c2ccccn2)n1 [Example 135]	4 nM	100%	1 nM	71%	22%	660 nM	110 nM	–	–	–	–	–
C[C@@]1(Cn2ccc(-c3ccccn3)n2)CCCN1C(=O)c1nc2ccccn2c1-c1ccccc1 [Example 149]	570 nM	89%	120 nM	13%	28%	–	–	–	–	–	–	–
O=C(c1c(-c2ccccc2F)nc2ccccn12)N1CCC[C@H]1Cn1ccc(-c2ccc(F)cc2)n1 [Example 62]	6 nM	–	1 nM	–	–	26 nM	4 nM	96.96%	85.23%	79%	200 nM	110 nM
O=C(c1nc2ccccn2c1-c1ccccc1)N1CCC[C@H]1Cn1cc(-c2ccccn2)cn1 [Example 118]	5 nM	100%	1 nM	45%	35%	–	–	–	–	–	–	–
O=C(c1c(-c2ccccc2)nn2c1COCC2)N1[C@@H]2CC[C@@H](C2)[C@H]1COc1ccc(C(F)(F)F)cn1 [Example 87]	230 nM	78%	49 nM	23%	3%	–	–	–	–	–	–	–

The remaining molecules from weak to strong by IC50 [1], led by results:

IC50 [1]	inhibition at 1 µM [1]	Kb [1]	inhibition at 1 µM [2]	inhibition at 1 µM [3]	IC50 [2]	Kb [2]	SMILES	OX1R, % Inh. @ 1 uM [1]	OX2R, % Inh. @ 1 uM [2]	KOR % Inh. @ 1 uM [3]	IC50 [3]	Ki [3]
270 nM	96%	56 nM	5%	12%	–	–	C[C@@]1(COc2ccc(C(F)(F)F)cn2)CCCN1C(=O)c1nn2c(c1-c1ccccc1)COCC2 [Example 145]	–	–	–	–	–
80 nM	98%	2 nM	46%	11%	–	–	O=C(c1c(-c2ccccc2)nc2ccccn12)N1[C@@H]2CC[C@@H](C2)[C@H]1COc1ccc(C(F)(F)F)cn1 [Example 89]	–	–	–	–	–
53 nM	64%	11 nM	41%	11%	–	–	O=C(c1c(-c2ccccc2F)nc2ccccn12)N1CCC[C@H]1COc1ccc(C(F)(F)F)cn1 [Example 65]	–	–	–	–	–
46 nM	80%	10 nM	63%	22%	300 nM	52 nM	O=C(c1c(-c2ccccc2)nn2ccccc12)N1CCC[C@H]1Cc1nc(-c2ccc(F)cn2)no1 [Example 120]	–	–	–	–	–
12 nM	100%	3 nM	44%	0%	–	–	O=C(c1nn2c(c1-c1ccccc1)COCC2)N1CCC[C@H]1Cn1ccc(-c2ccccn2)n1 [Example 134]	–	–	–	–	–
9 nM	100%	2 nM	62%	0%	490 nM	84 nM	O=C(c1c(-c2ncccn2)nn2ccccc12)N1CCC[C@H]1Cn1ccc(-c2ccccn2)n1 [Example 138]	–	–	–	–	–
8 nM	100%	2 nM	82%	0%	63 nM	11 nM	O=C(c1c(-c2ccccn2)nn2ccccc12)N1CCC[C@H]1Cn1ccc(-c2ccccn2)n1 [Example 139]	–	–	–	–	–
5 nM	100%	1 nM	31%	17%	–	–	O=C(c1nc2ccccn2c1-c1ccccc1)N1CCC[C@H]1Cc1nc(-c2ccc(F)cn2)no1 [Example 127]	–	–	–	–	–
4 nM	99%	1 nM	81%	44%	83 nM	14 nM	O=C(c1c(-c2ccccc2)nn2cccnc12)N1CCC[C@H]1Cn1ccc(-c2ccccc2)n1 [Example 133]	–	–	–	–	–
4 nM	100%	1 nM	98%	35%	16 nM	3 nM	O=C(c1c(-c2ccccn2)nn2ccccc12)N1CCC[C@H]1Cn1ccc(-c2ccccc2)n1 [Example 132]	–	–	–	–	–
2 nM	100%	0.3 nM	69%	19%	150 nM	26 nM	O=C(c1nn2ccccc2c1-c1ccccc1)N1CCC[C@H]1Cc1nc(-c2ccc(F)cn2)no1 [Example 117]	–	–	–	–	–
